Data set [1] has as its system TNKS1/2 (Tankyrase 1 or Tankyrase 2). As to conditions: compared with other PARP inhibitors, biochemical assay; cited from earlier work.
The conditions of data set [2]: results of clinical trials; cited from earlier work.
Data set [3] relates to MDA-MB-436 cells. Nature of the data set: Growth inhibition assay against BRCA mutant human breast cancer MDA-MB-436 cell line (CCK-8, 7 days). Type of data set: cell-based.
The target of data set [4] is recombinant poly(ADP-ribose) polymerase 1 (PARP1) (Homo sapiens, UniProt P09874). Description: biochemical. Particulars: inhibition of PARP1 enzyme activity, chemiluminescence.
For data set [5], the target named is recombinant poly(ADP-ribose) polymerase 2 (PARP2) (Homo sapiens, UniProt Q9UGN5). Nature of the data set: biochemical. Particulars: inhibition of PARP2 enzyme activity, chemiluminescence.

pIC50: −log10 of the molar value.

As usually defined, the pIC50 is −log10 of the IC50, conventionally taken in molar units. A lower pIC50 goes with a large IC50. Broadly, the IC50 is the concentration that inhibits the measured activity by half.

recombinant poly(ADP-ribose) polymerase 2 (PARP2), sequence (Q9UGN5 whole entry): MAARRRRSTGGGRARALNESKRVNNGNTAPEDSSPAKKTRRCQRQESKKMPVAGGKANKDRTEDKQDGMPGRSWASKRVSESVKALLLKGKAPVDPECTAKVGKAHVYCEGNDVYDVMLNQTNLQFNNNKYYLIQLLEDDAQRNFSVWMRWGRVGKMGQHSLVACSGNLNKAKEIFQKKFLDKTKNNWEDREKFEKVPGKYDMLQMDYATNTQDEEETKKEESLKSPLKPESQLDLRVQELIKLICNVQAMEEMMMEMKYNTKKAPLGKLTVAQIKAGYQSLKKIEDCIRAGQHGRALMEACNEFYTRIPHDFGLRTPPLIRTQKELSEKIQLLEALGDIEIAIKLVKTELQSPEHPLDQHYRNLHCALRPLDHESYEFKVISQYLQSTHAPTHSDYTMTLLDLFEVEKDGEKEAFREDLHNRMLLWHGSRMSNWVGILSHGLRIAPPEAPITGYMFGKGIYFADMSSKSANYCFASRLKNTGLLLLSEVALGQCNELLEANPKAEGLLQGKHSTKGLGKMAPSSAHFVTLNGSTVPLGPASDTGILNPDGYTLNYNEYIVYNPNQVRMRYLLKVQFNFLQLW
recombinant poly(ADP-ribose) polymerase 1 (PARP1), sequence (P09874 whole entry): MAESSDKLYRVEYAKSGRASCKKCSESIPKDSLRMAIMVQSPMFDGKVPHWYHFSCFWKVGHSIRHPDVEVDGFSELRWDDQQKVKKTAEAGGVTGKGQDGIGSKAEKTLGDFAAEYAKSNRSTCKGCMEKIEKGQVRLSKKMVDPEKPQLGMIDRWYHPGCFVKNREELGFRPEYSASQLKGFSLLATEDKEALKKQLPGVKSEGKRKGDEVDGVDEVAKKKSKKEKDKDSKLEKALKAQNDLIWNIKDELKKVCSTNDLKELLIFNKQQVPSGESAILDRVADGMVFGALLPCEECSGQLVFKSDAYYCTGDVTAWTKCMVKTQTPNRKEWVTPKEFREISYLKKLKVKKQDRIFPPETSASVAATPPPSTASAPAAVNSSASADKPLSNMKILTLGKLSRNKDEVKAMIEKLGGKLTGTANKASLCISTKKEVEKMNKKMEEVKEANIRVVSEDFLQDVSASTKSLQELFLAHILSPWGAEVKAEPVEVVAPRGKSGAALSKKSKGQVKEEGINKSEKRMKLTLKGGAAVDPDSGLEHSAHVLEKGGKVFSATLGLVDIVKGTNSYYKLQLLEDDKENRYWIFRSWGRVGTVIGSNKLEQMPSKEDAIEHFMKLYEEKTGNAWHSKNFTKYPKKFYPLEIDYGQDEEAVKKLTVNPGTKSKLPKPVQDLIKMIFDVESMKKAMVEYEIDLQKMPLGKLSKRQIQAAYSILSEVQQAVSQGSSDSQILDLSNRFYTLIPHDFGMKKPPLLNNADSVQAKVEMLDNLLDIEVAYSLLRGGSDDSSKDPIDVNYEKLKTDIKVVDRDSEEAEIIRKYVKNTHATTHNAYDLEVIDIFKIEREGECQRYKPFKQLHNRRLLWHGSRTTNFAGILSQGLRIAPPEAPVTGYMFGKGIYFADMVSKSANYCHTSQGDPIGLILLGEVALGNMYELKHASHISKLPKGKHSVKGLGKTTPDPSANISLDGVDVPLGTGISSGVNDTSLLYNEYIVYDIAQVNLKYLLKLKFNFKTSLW

On to `Cn1ncnc1[C@H]1c2n[nH]c(=O)c3cc(F)cc(c23)N[C@@H]1c1ccc(F)cc1` [Talazoparib], for which the “inhibitory activity against TNKS1/2” value in data set [1] was “more potent inhibitory activity”. Besides, in data set [2], the toxicity entry is “toxicity similar to chemotherapy drugs such as hair loss”.
`CNC(=O)c1ccc(N2CCN(Cc3ccc4c(c3)[nH]c(=O)c3cccn34)CC2)c(Cl)n1` [Example 35, 7-((4-(2-chloro-6-(methylcarbamoyl)pyridin-3-yl)piperazin-1-yl)methyl)pyrrolo[1,2-a]quinoxalin-4(5H)-one] had a pIC50 in data set [3] of 9.41. For the same compound, the figures for the IC50 in data set [4] and in data set [5] were 0.81 nM and 26.3 nM, respectively.
For `CNC(=O)c1ccc(N2CCN(Cc3ccc4c(c3)[nH]c(=O)c3ccnn34)CC2)c(F)n1` [Example 36, 7-((4-(2-fluoro-6-(methylcarbamoyl)pyridin-3-yl)piperazin-1-yl)methyl)pyrazolo[1,5-a]quinoxalin-4(5H)-one], in that order: 8.95, 0.44 nM and 41.4 nM.
For `O=C(NC1CC1)c1ccc(N2CCN(Cc3cc(F)c4c(c3)[nH]c(=O)c3cccn34)CC2)c(Cl)n1` [Example 68, 7-((4-(2-chloro-6-(cyclopropylcarbamoyl)pyridin-3-yl)piperazin-1-yl)methyl)-9-fluoropyrrolo[1,2-a]quinoxalin-4(5H)-one] the same measures were 8.53, 1.61 nM and 90.1 nM.
For `CNC(=O)c1ccc(N2CCN(Cc3ccc4c(c3)[nH]c(=O)c3cc(C)nn34)CC2)c(Cl)n1` [Example 70, 7-((4-(2-chloro-6-(methylcarbamoyl)pyridin-3-yl)piperazin-1-yl)methyl)-2-methylpyrazolo[1,5-a]quinoxalin-4(5H)-one], in that order: 8.85, 1.37 nM and 103 nM.
In the case of `Cc1nc(C(=O)NC2CC2)ccc1N1CCN(Cc2ccc3c(c2)[nH]c(=O)c2ccnn23)CC1` [Example 62, 7-((4-(2-methyl-6-(cyclopropylcarbamoyl)pyridin-3-yl)piperazin-1-yl)methyl)pyrazolo[1,5-a]quinoxalin-4(5H)-one], the pIC50 in data set [3] was 8.47. Moreover, the results for the IC50 in data set [4] and in data set [5] were 0.29 nM and 150 nM, respectively.

(Values after patent US20240368169A1 (priority 2021, published 2024).)
